Measurements from PMC6450673, “Targeted degradation of aberrant tau in frontotemporal dementia patient-derived neuronal cell models” (eLife, 2019).
Values joined by “and” are separate entries in the source; they are usually repeats but may differ in a detail not shown here. Identical values can stand only once.

How the values were obtained:
[1] = system: P-tau S396 in A152T neurons; assay: Western blot of P-tau S396 in A152T neurons; type: cell-based, human; conditions: for S396 P-Tau (relative to vehicle): 4 h treatment
From the text: (§1) Cells from individuals carrying the tau risk variant A152T (c.1407G > A; NCBI RefSeq NM_001123066, rs143624519), the autosomal dominant mutation P301L (c.C1907T; NCBI NM_001123066, rs63751273), or age-matched non-mutant WT tau were employed in this study (Figure 2—source data 1). Dermal fibroblasts from the tau-P301L carrier and the healthy individual were generated from a skin biopsy from subjects within the MGH Frontotemporal Disorders Unit as part of the MGH Neurodegeneration Repository. Approval for human subjects’ work was obtained under a Partners/MGH-approved IRB Protocol (#2010P001611/MGH). Fibroblasts were reprogrammed into iPSCs, which were subsequently converted into cortical-enriched neural progenitor cells (NPCs) and differentiated into neuronal cells as previously described ([Almeida et al., 2012]; [Seo et al., 2017]; [Silva et al., 2016]; [Sheridan et al., 2011]) (Silva MC, Manuscript in preparation, 2019). Briefly, cells were cultured in 6-well (Fisher Scientific Corning, Pittsburgh, PA) or 96-well (Fisher Scientific Corning) plates coated with poly-ornithine (20 μg/mL in water, Sigma, St. Louis, MO) and laminin (5 μg/mL in PBS, Sigma) (POL-coated), in DMEM/F12-B27 media [70% DMEM (Gibco, Carlsbad, CA), 30% Ham’s-F12 (Fisher Scientific Corning), 2% B27 (Gibco), 1% penicillin-streptomycin (Gibco)]. Media was supplemented with EGF (20 ng/mL, Sigma), FGF (20 ng/mL, Stemgent, Cambridge, MA) and heparin (5 μg/mL, Sigma), to promote NPC proliferation and expansion. The growth factors were withdrawn to promote neural differentiation for 6 to 8 weeks, with half media change two times per week. Cell lines’ identity was authenticated by SANGER sequencing, karyotyping and ACGH analysis at different stages of culture maintenance from iPSC to NPC. All working cell lines tested negative for mycoplasma contamination.
(§2) Compound treatment in six-well plates was performed in 2 mL media volume by removing 1 mL of conditioned media from the culture and adding 1 mL of new media pre-mixed with the compound at the appropriate 2X concentration, followed by incubation at 37°C for the designated period of time. Compound treatment in 96-well plates was performed in 100 μL media volume by adding compound directly to each well, followed by incubation at 37°C. When testing the effect of drug pre-treatment, the first compound was added as described above for the period of time needed, and then QC-01–175 was added directly onto the media without media exchange.
(§3) Neurons differentiated in six-well plates for 6 weeks were washed and collected in PBS, lysed in RIPA buffer (Boston Bio-Products, Boston, MA) supplemented with 2% SDS (Sigma), protease inhibitors cocktail (Roche Complete Mini tablets, Mannheim, Germany), and phosphatase inhibitors cocktail (Sigma), followed by water sonication (Bransonic Ultrasonic Baths, Thomas Scientific, Danbury, CT) and 20,000 g centrifugation for 20 min. Supernatants were transferred to new tubes and total protein concentration was quantified with the Pierce BCA Protein Assay Kit (ThermoFisher Scientific, Carlsbad, CA). Human recombinant tau protein ladder was purchased from Sigma. Electrophoresis were performed with the Novex NuPAGE SDS-PAGE Gel System (Invitrogen, Carlsbad, CA), by running 10 μg of total protein (pre-boiled in SDS-DTT loading buffer, NEB, Ipswich, MA) on pre-cast SDS-PAGE. Gels were transferred onto PVDF membranes (EMD Millipore) using standard procedures. Membranes were blocked in 5% BSA (Sigma) in Tris-buffered saline with Tween-20 (TBST/Biorad, Hercules, CA) for 2 hr, incubated overnight with primary antibody (see antibody section) at 4°C, followed by corresponding HRP-linked secondary antibody incubation (Cell Signaling Technology, Danvers, MA). […]

[2] = molecular target: T1, P-tau S396 in non-mutant control iPSC-derived neurons (Homo sapiens, UniProt P10636); assay: P-Tau[pS396] ELISA in control neurons 1-3; type: cell-based; conditions: for S396 P-Tau (ELISA, relative to vehicle-treated): replicate values; for degradation of P-tau S396: 24 hr
T1 construct: modeling pathogenic tau species without the need for overexpression of heterologous genes; endogenous in cells; host or cells: 8330-8-RC1, MGH2069-RC1, CTR2-L17-RC2 human iPSC-derived neurons
T1 sequence (P10636 1-441 isoform P10636-8, stated change not applied): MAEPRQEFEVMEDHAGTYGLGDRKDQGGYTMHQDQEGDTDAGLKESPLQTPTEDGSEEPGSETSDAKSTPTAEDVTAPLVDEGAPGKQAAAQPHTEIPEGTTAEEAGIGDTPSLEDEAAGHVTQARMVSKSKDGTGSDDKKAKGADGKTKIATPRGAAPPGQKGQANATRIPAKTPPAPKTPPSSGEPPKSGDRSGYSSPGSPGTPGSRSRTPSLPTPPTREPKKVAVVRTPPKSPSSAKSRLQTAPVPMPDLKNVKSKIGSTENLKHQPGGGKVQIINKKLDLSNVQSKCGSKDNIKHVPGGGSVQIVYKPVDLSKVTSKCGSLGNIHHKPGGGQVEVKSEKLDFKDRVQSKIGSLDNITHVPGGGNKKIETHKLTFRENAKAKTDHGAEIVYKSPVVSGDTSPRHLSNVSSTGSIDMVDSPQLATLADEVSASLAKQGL
From the text: as §1, §2
(§4) Neuronal cells differentiated in six-well plate format for 6 weeks, were collected as described for western blotting, and lysed in ELISA-compatible buffer (Invitrogen FNN0011), supplemented with 1 mM PMSF, protease (Roche) and phosphatase (Sigma) inhibitors cocktails, for 30 min on ice with quick vortexing. Lysates were clarified by centrifugation at 13,000 rpm at 4°C for 10 min. The clear lysates were then transferred to new microfuge tubes and total protein concentration was quantified with the Pierce BCA Protein Assay Kit (ThermoFisher Scientific). ELISA assays were performed according to manufacturer instructions: Human Total Tau ELISA (Invitrogen Kit KHB0041/KHB0042) and P-Tau[pS396] Human ELISA Kit (Invitrogen Kit KHB7031). Data was plotted using GraphPad Prism version 8.0.

[3] = system: total tau (TAU5) in P301L neurons; assay: Western blot of total tau in P301L neurons; type: cell-based, human
From the text: as §1
Compound treatment in six-well plates was performed in 2 mL media volume by removing 1 mL of conditioned media from the culture and adding 1 mL of new media pre-mixed with the compound at the appropriate 2X concentration, followed by incubation at 37°C for the designated period of time. […]
Neurons differentiated in six-well plates for 6 weeks were washed and collected in PBS, lysed in RIPA buffer (Boston Bio-Products, Boston, MA) supplemented with 2% SDS (Sigma), protease inhibitors cocktail (Roche Complete Mini tablets, Mannheim, Germany), and phosphatase inhibitors cocktail (Sigma), followed by water sonication (Bransonic Ultrasonic Baths, Thomas Scientific, Danbury, CT) and 20,000 g centrifugation for 20 min. Supernatants were transferred to new tubes and total protein concentration was quantified with the Pierce BCA Protein Assay Kit (ThermoFisher Scientific, Carlsbad, CA). […]

[4] = system: total tau (TAU5) in tau-P301L patient iPSC-derived neurons; assay: Human total tau ELISA in P301L neurons; type: cell-based
From the text: as §1, §2, §4

[5] = system: total tau (TAU5) in A152T neurons; assay: Western blot of total tau in A152T neurons; type: cell-based, human; conditions: 24 hr
From the text: as §1, §2, §3

[6] = system: P-tau S396 in P301L neurons; assay: Western blot of P-tau S396 in P301L neurons; type: cell-based, human
From the text: as §1, §2, §3

[7] = QC-01-175 0.001 μM, 8 h treatment

O=C(CCc1ccc2c(c1)[nH]c1ccncc12)NCCOCCOCCNc1cccc2c1C(=O)N(C1CCC(=O)NC1=O)C2=O (centres unmarked) [QC-01–175]
lowest concentration with effective degradation of P-tau S396 and high-molecular-weight P-tau S396 ([1]; 24 hr): 100 nM
Dmax, 24h for P-tau S396 ([1]; 24 hr, averaged across independent replicates (Figure 2—figure supplement 1)): 85%
S396 P-Tau (relative to vehicle) ([1]; QC-01-175 0.001 μM): 0.90 and 1.03 and 1.29 and 1.23 and 0.94 and 0.98
S396 P-Tau (relative to vehicle) ([1]; QC-01-175 0.01 μM): 0.75 and 0.86 and 1.08 and 1.03 and 0.78 and 0.81 and 0.97 and 0.82
S396 P-Tau (relative to vehicle) ([1]; QC-01-175 0.05 μM): 0.69 and 0.79 and 0.99 and 0.94 and 0.72 and 0.75
S396 P-Tau (relative to vehicle) ([1]; QC-01-175 0.1 μM): 0.16 and 0.19 and 0.24 and 0.22 and 0.17 and 0.20 and 0.18
S396 P-Tau (relative to vehicle) ([1]; QC-01-175 0.5 μM): 0.38 and 0.44 and 0.55 and 0.53 and 0.40 and 0.42
S396 P-Tau (relative to vehicle) ([1]; QC-01-175 1 μM): 0.52 and 0.59 and 0.75 and 0.71 and 0.54 and 0.55 and 0.56
S396 P-Tau (relative to vehicle) ([1]; QC-01-175 10 μM): 0.55 and 0.63 and 0.79 and 0.75 and 0.57 and 0.93 and 0.80 and 0.59
S396 P-Tau (ELISA, relative to vehicle-treated) ([2]; Control 1, 8330-8-RC1, 24h, 0.001 μM): 0.90 and 1.07 and 1.00 (2×)
S396 P-Tau (ELISA, relative to vehicle-treated) ([2]; Control 1, 8330-8-RC1, 24h, 0.01 μM): 0.97 (2×) and 0.67 and 0.90
S396 P-Tau (ELISA, relative to vehicle-treated) ([2]; Control 1, 8330-8-RC1, 24h, 0.1 μM): 0.71 and 0.84 and 1.21 and 0.90
S396 P-Tau (ELISA, relative to vehicle-treated) ([2]; Control 1, 8330-8-RC1, 24h, 1 μM): 0.85 and 1.01 and 0.80 and 0.95
S396 P-Tau (ELISA, relative to vehicle-treated) ([2]; Control 1, 8330-8-RC1, 24h, 10 μM): 0.55 and 0.65 and 0.77 and 0.86
S396 P-Tau (ELISA, relative to vehicle-treated) ([2]; Control 2, MGH2069-RC1, 24h, 0.001 μM): 0.71 and 0.83 and 1.11 and 0.91
S396 P-Tau (ELISA, relative to vehicle-treated) ([2]; Control 2, MGH2069-RC1, 24h, 0.01 μM): 0.89 and 1.05 and 1.10 and 0.99
S396 P-Tau (ELISA, relative to vehicle-treated) ([2]; Control 2, MGH2069-RC1, 24h, 0.1 μM): 0.85 and 1.00 and 0.99 and 1.30
S396 P-Tau (ELISA, relative to vehicle-treated) ([2]; Control 2, MGH2069-RC1, 24h, 1 μM): 1.14 (2×) and 1.04 and 0.97
S396 P-Tau (ELISA, relative to vehicle-treated) ([2]; Control 2, MGH2069-RC1, 24h, 10 μM): 0.95 and 1.12 and 0.78 and 0.91
S396 P-Tau (ELISA, relative to vehicle-treated) ([2]; Control 3, CTR2-L17-RC2, 24h, 0.001 μM): 0.94 and 0.77 and 0.84 and 1.00
S396 P-Tau (ELISA, relative to vehicle-treated) ([2]; Control 3, CTR2-L17-RC2, 24h, 0.01 μM): 1.06 and 1.13 and 1.00 and 0.97
S396 P-Tau (ELISA, relative to vehicle-treated) ([2]; Control 3, CTR2-L17-RC2, 24h, 0.1 μM): 0.95 and 0.78 and 1.00 and 0.90
S396 P-Tau (ELISA, relative to vehicle-treated) ([2]; Control 3, CTR2-L17-RC2, 24h, 1 μM): 1.03 and 0.85 and 0.87 and 0.72
S396 P-Tau (ELISA, relative to vehicle-treated) ([2]; Control 3, CTR2-L17-RC2, 24h, 10 μM): 0.70 and 0.95 and 0.89 and 0.74
degradation of P-tau S396 ([2]; all three control neurons, ELISA, concentrations up to 1 μM): No significant degradation
degradation of P-tau S396 ([2]; control line 1, 10 μM): ~ 40%
degradation of P-tau S396 ([2]; control line 2, 10 μM): no significant effect
degradation of P-tau S396 ([2]; control line 3, 10 μM): no significant effect
TAU5 (relative to vehicle) [3, 7]: 0.95 and 0.90 and 0.56 and 0.94 and 0.68 and 0.86
TAU5 (relative to vehicle) ([3]; QC-01-175 1 μM, 4 h treatment): 1.07 and 1.10 and 0.76 and 0.60 and 0.72 and 0.88
reduction in total tau ([3]; western blot, 1 μM, 24 hr): 70%
clearance of tau, on average ([4]; P301L heterozygous neurons): > 60%
Dmax, 4h, total tau ([4]; P301L neurons, ELISA, 4 hr, at 100 nM): 80%
Dmax, 24h, total tau ([4]; P301L neurons, ELISA, 24 hr, achieved at 1 μM): 60%
concentration at which maximal total tau clearance (Dmax, 24h) was achieved [5]: 10 µM
Dmax, 24h for total tau ([5]; averaged across independent replicates (Figure 2—figure supplement 1)): 75%
S396 P-Tau (relative to vehicle) ([6]; QC-01-175 0.001 μM, 4 h treatment): 0.59 and 0.49 and 0.60 and 0.58 and 0.57 and 0.52
S396 P-Tau (relative to vehicle) [6, 7]: 0.98 and 0.81 and 1.10 and 0.96 and 0.94 and 0.86
S396 P-Tau (relative to vehicle) ([6]; QC-01-175 0.01 μM, 4 h treatment): 0.62 and 0.51 and 0.75 and 0.61 and 0.59 and 0.54
S396 P-Tau (relative to vehicle) ([6]; QC-01-175 0.01 μM, 8 h treatment): 0.69 and 0.97 and 0.99 and 0.98 and 0.66 and 0.61
S396 P-Tau (relative to vehicle) ([6]; QC-01-175 0.05 μM, 8 h treatment): 0.74 and 0.61 and 0.85 and 0.73 and 0.71 and 0.65
S396 P-Tau (relative to vehicle) ([6]; QC-01-175 0.1 μM, 4 h treatment): 0.91 and 0.75 and 0.98 and 0.89 and 0.87 and 0.80
S396 P-Tau (relative to vehicle) ([6]; QC-01-175 0.1 μM, 8 h treatment): 0.62 and 0.51 and 0.70 and 0.61 and 0.59 and 0.54
S396 P-Tau (relative to vehicle) ([6]; QC-01-175 0.5 μM, 4 h treatment): 0.85 and 0.70 and 0.91 and 0.83 and 0.81 and 0.75
S396 P-Tau (relative to vehicle) ([6]; QC-01-175 0.5 μM, 8 h treatment): 0.41 and 0.34 and 0.45 and 0.39 and 0.36
S396 P-Tau (relative to vehicle) ([6]; QC-01-175 1 μM, 4 h treatment): 0.96 and 0.79 and 0.89 and 0.94 and 0.91 and 0.84
S396 P-Tau (relative to vehicle) ([6]; QC-01-175 1 μM, 8 h treatment): 0.47 and 0.55 and 0.51 and 0.46 and 0.54 and 0.59
S396 P-Tau (relative to vehicle) ([6]; QC-01-175 10 μM, 4 h treatment): 0.73 and 0.6 and 0.84 and 0.72 and 0.70 and 0.64
S396 P-Tau (relative to vehicle) ([6]; QC-01-175 10 μM, 8 h treatment): 0.72 and 0.70 and 0.75 and 0.71 and 0.69 and 0.63
reduction of P-tau S396 ([6]; western blot, 1 μM, 24 hr): 80%
